Data taken from patent US6087375A, “Methods of treating or preventing thromboses” (priority 1999, dated 2000).

System: human platelets (thrombin-induced aggregation)
Experiment: Thrombin-induced platelet aggregation assay
Format: cell-based
Description: The conjugate was prepared according to the following protocol. A 15 μM solution of RSA in PBS was reacted with 200 μM argatroban-C6 NHS ester for 1 hour at room temperature. Sham samples consist of the RSA incubated for the same length of time at RT in 2% DMSO in PBS. Each of the samples was then concentrated to a final volume of 1.5 mL using Amicon Centricon 30 filtration/concentration devices. The concentrated samples were then desalted on Pierce's 5 ML Kwiksep excellulose plastic desalting columns. The excluded volumes containing RSA or argatroban-C6-RSA were then subjected to BCA microprotein estimation and lyophilization. In addition, these samples were analyzed by LC/MS, sandwich ELISA assays (described above) to measure thrombin binding and immunoblotting.
Platelets were purified from freshly drawn human blood diluted with the anticoagulant buffer ACD (9 mls of blood to 1 mL of buffer). The blood was centrifuged for 25 min at 200×g. The platelet-rich plasma (PRP) was recovered with a plastic pipette. The PRP was centrifuged for 15 min at 3,000×g in v-shaped plastic tubes. The supernatant, called platelet-poor plasma (PPP), was then removed and saved, and the platelets were resuspended in buffer A1 (35 mM citric acid, 103 mM NaCl, 5 mM each of glucose and KCl, 2 mM CaCl2, 1 mM […], 3.5 mg/mL BSA, 0.1 μM PGE1 and 0.3 U/mL of apyrase at pH 6.5). The resuspended platelets were washed 2 times with buffer A1. After the last wash, the platelets were resuspended in buffer B1 (137 mM NaCl, 2.6 mM KCL 12 mM NaHCO3, 0.3 mM NaH2 PO4, 3 mM CaCl2, 1 mM MgCl2, 5 mM glucose, 3.5 mg/mL BSA and […] apyrase at pH 7.4) at a density of 3×10^5 /μL. The platelets were maintained at room temperature until ready for use.
Various parameters relevant to platelet aggregation were obtained on a four channel aggregometer manufactured by AFFI BIO. In brief, the reaction chambers are warmed to 37° C. and are agitated at a rate of 1,200 rpm. Light is passed through the reaction chambers, with 300 μL of buffer B1 used to set the 100% transmittance level for each chamber. From a series of standardization experiments, it was determined that 0.5 U/mL of human thrombin (Sigma) is an optimal aggregating concentration of thrombin and is used to set. the 0% transmittance for the instrument. Standard conditions for the assay involve incubating 250 μL of the platelet suspension with or without 50 μL of inhibitor diluted in buffer in the reaction chambers for 60 seconds at 37° C. The value of transmittance is now set as 0%. After this measurement, thrombin is added to the reaction chambers (20 μl) and transmittance is measured for the next 6 minutes. Samples were performed in triplicate.

RSA-argatroban-C6 conjugate: rabbit serum albumin covalently bound by argatroban-C6 NHS ester molecules
IC50 (estimated concentration which inhibits 50% of the aggregation) (0.5 U/mL human thrombin, 37° C., conjugate: average of 10 argatrobans/RSA used): 4.5 to 7.5 µM
delay in thrombin-induced platelet aggregation (FIG. 11, versus sham-treated RSA): clearly delayed platelet aggregation
